For series [1], the system named is male C57B1/6 mice. Nature of the series: TNF-α model of liver injury (TNFα/D-Gln), plasma ALT activity. To be noted: PO by gavage 30 minutes before D-Gln/TNFα insult; blood 6 hours later; average from 4 studies. It counts as in vivo. The method, then:
(§1) TNF-α is a cytokine that is implicated in inducing liver injury in a variety of acute and chronic liver diseases such as chronic HCV and acute liver failure. An exemplary in vivo model to test pharmacological agents against TNF-α induced injury is the TNF-α/D-Gal model of liver injury in mice. In this model, mice are treated with TNF-α/D-Gal and compound is administered to evaluate its ability to protect against liver damage. The compound is administered either before, at the time of or after the treatment with TNF-α/D-Gal, and followed for a period of approximately 6 hours. Allowing this model to persist past 6 hours is a variation used to determine the improved survival afforded by compound treatment.
(§2) In vivo efficacy of RO-113-0830 was assessed using male C57B1/6 mice (Simonsen Labs) in two well-established models of liver damage. The mice were allowed to acclimate for at least three days.
In the TNF-α model of liver injury, D-Galactosamine (D-Gln) (800 mg/kg) and TNFα (20 or 40 μg/kg) were injected IP. RO-113-0830 (0.001-30 mg/kg) was administered PO by gavage 30 minutes before insult. Six hours later, animals were anesthetized with Nembutal (50 mg/kg IP), and blood was taken by cardiac puncture. Plasma ALT activity was determined using a kit from Sigma-Aldrich.

For another series, the system named is C57/BL6 wild-type mice. Nature of the series: Bile duct ligation model of liver fibrosis. Type of series: in vivo. To be noted: 10 mg/kg by gavage once a day. As for the experimental part: The bile duct ligation model is a well characterized model of liver fibrosis. Briefly, C57/BL6 wild-type mice 6 to 8 weeks of age were subjected to bile duct ligation (BDL) for 14 days: Sham-operated wild type mice were used as controls. Either RO 113-0830 or CMC (carboxymethylcellulose) were administered by gavage in a dose of 10 mg/kg body weight once a day. Hepatocyte apoptosis was quantified by the TUNEL assay and immunofluorescence for activated caspases 3/7. Liver injury was assessed by histopathology, and quantification of bile infarcts. Hepatic fibrosis was assessed by Sirius red staining and quantitative morphometry. Real-time polymerase chain reaction (PCR) was used to measure mRNA transcripts for collagen 1alpha (I) and alpha-smooth muscle actin.

Another series relates to full-length HCV replicon. Kind of series: HCV RNA replicon antiviral evaluation assay. Type of series: cell-based, Hepatitis C virus. To be noted: 72 hr; HCV RNA replicon levels by TaqMan RT-PCR; read-out: EC50 (concentration inhibition virus replication by 50%). (In antiviral work, replicon cells carry a viral genome segment that copies itself.)
Series [2] concerns Huh7 human hepatoma cell line (the 21-5 cell line). To be noted: read-out: IC50 for cytotoxicity (concentration decreasing cell viability by 50%); 72 hr; host cell rRNA levels by TaqMan RT-PCR. An excerpt: Cells were processed 72 hr later when the cells were still sub-confluent.
Series [3] deals with male C57B1/6 mice. Nature of the series: Fas driven model of liver damage (Jo-2 antibody), plasma ALT activity. It counts as in vivo. To be noted: 10 mg/kg PO; 6 hours after Jo-2 IV; average of 2 studies; p<0.05 in each study. As for the experimental part:
as §2
In a Fas driven model of liver damage, an activating antibody to Fas (Jo-2) was administered IV. Six hours later, animals were anesthetized with Nembutal (50 mg/kg IP), and blood was taken by cardiac puncture. Plasma ALT activity was determined using a kit from Sigma-Aldrich.

The test system of series [4] is male C57B1/6 mice. Nature of the series: TNF-α model (TNFα/D-Gln), 24 hour survival. It counts as in vivo. To be noted: TNFα/D-Gln insult; average from 3 studies; p=0.03 vs control (27±7.3%). As for the experimental part: as §1, §2
To determine a benefit on survival, TNF-α model, D-Galactosamine (D-Gln) (800 mg/kg) and TNF-α (20 or 40 μg/kg) were injected IP, and mice were allowed to survive for 24 hours post insult. All morbid mice were euthanized with 125 mg/kg of Nembutal IP. The average 24 hour survival from 3 studies was 27±7.3% and. 55±7.6% (p=0.03) in the TNFα/D-Gln control mice and RO-113-0830-treated mice, respectively.

Structures are written as SMILES. Bounds are passed on as bounds.

Method for full-length HCV replicon: The assay was conducted as described by Pietschmann, T. et al., supra.
Human interferon alpha-2b was included in each run as a positive control compound. Subconfluent cultures of the ET line were plated out into 96-well plates that were dedicated for the analysis of cell numbers (cytotoxicity) or antiviral activity and the next day drugs were added to the appropriate wells. Cells were processed 72 hr later when the cells were still sub-confluent. HCV RNA replicon levels and the toxic concentration of drug that reduces cell numbers, as indicated by host cell ribosomal RNA (rRNA) levels, were assessed by TaqMan RT-PCR. The EC50 (concentration inhibition virus replication by 50%), IC50 (concentration decreasing cell viability by 50%) and S150 (selective index: IC50/EC50) values were calculated.

On to `O=C(NO)C1(CS(=O)(=O)c2ccc(Oc3ccc(Cl)cc3)cc2)CCOCC1` [RO-113-0830], for which the “ED50 for decrease of plasma ALT activity” value in the series with male C57B1/6 mice [1] was determined as 0.26 ± 0.08 mg/kg. For the same molecule, the “reduction of Sirius red staining of hepatic collagen” value with C57/BL6 wild-type mice (14 days of BDL) amounted to 3 fold. In addition, the “reduction in the number of bile infarcts vs vehicle treated BDL mice” value in the series with C57/BL6 wild-type mice (14 days of BDL, histologic examination) is reported as above 70%. In the series with C57/BL6 wild-type mice (14 days of BDL, p<0.01), the “decrease in TUNEL-positive hepatocytes vs vehicle” value was 3 fold and the “decrease in caspase 3/7-positive hepatocytes vs vehicle” value worked out at 5 fold. Further, in the series with C57/BL6 wild-type mice (14 days of BDL, real-time PCR), the “reduction of hepatic alpha-smooth muscle actin mRNA vs vehicle-treated BDL animals” value is above 60% and the “reduction of hepatic collagen I mRNA vs vehicle-treated BDL animals” value was above 60%. For the same molecule, in the series on C57/BL6 wild-type mice (p<0.05), the “overall animal survival following 14 days of BDL” value is “significantly enhanced”. Also, the EC50 in the series with full-length HCV replicon came to 0.07 µM. Besides, in series [2], the IC50 was around 25 µM. In addition, the “reduction of Fas-induced elevation in plasma ALT activity” value with male C57B1/6 mice [3] was 50%. Moreover, the 24 hour survival in the series on male C57B1/6 mice [4] is 55±7.6%.

(Values after US20080207605A1, “Combination therapy for the treatment of liver diseases” (priority 2007, published 2008).)
